Results from PubChem BioAssay AID248 (DTP/NCI, 2004).
Values joined by “and” are separate entries in the source; they are usually repeats but may differ in a detail not shown here. Equal values may be shown once. Toxic doses and inconclusive results are not listed. Cut-off read from the data, not from the text of the source: active = T/C of 150% or more; inactive = T/C below 125%.

Test system: L1210 leukemia ip in BDF1 mice, survival T/C
Test: NCI In Vivo Anticancer Drug Screen. Data for tumor model L1210 Leukemia (intraperitoneal) in B6D2F1 (BDF1) mice
Details: higher = longer survival
Summary of the method: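 Tumor was transplanted into mice, which were then dosed with test compound or vehicle alone. Survival was recorded for each group, and the treated figure was expressed relative to the control figure.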

Measured: T/C

O=NN(CCCl)C(=O)NCCCl
inactive: endpoint: mean survival time, dose: 0.09 mg/kg/injection, schedule: Q01DX009 (ip), vehicle: saline 96 % of control | endpoint: mean survival time, dose: 0.09 mg/kg/injection, schedule: Q01DX009 (oral), vehicle: saline 100 % of control | endpoint: mean survival time, dose: 0.09 mg/kg/injection, schedule: Q## X024 (oral), vehicle: saline 102 % of control | endpoint: mean survival time, dose: 0.18 mg/kg/injection, schedule: Q01DX005 (ip), vehicle: saline 94 % of control | endpoint: mean survival time, dose: 0.18 mg/kg/injection, schedule: Q01DX009 (ip), vehicle: saline 101 % of control | endpoint: mean survival time, dose: 0.18 mg/kg/injection, schedule: Q01DX009 (oral), vehicle: saline 102 % of control | endpoint: mean survival time, dose: 0.18 mg/kg/injection, schedule: Q## X008 (ip), vehicle: saline 102 % of control | endpoint: mean survival time, dose: 0.18 mg/kg/injection, schedule: Q## X024 (oral), vehicle: saline 98 % of control | endpoint: mean survival time, dose: 0.32 mg/kg/injection, schedule: Q01DX001 (ip), vehicle: other 98 % of control | endpoint: mean survival time, dose: 0.36 mg/kg/injection, schedule: Q01DX Z (ip), vehicle: carboxymethylcellulose (CMC) 104 % of control | endpoint: mean survival time, dose: 0.37 mg/kg/injection, schedule: Q01DX001 (ip), vehicle: saline 104 % of control | endpoint: mean survival time, dose: 0.37 mg/kg/injection, schedule: Q01DX005 (ip), vehicle: saline 103 % of control | endpoint: mean survival time, dose: 0.37 mg/kg/injection, schedule: Q01DX005 (oral), vehicle: saline 93 % of control | endpoint: mean survival time, dose: 0.37 mg/kg/injection, schedule: Q01DX009 (ip), vehicle: saline 101 % of control | endpoint: mean survival time, dose: 0.37 mg/kg/injection, schedule: Q01DX009 (oral), vehicle: saline 97 % of control | endpoint: mean survival time, dose: 0.37 mg/kg/injection, schedule: Q01DX009 (sc), vehicle: saline 97 % of control | endpoint: mean survival time, dose: 0.37 mg/kg/injection, schedule: Q01DX015 (ip), vehicle: saline 115 % of control | endpoint: mean survival time, dose: 0.37 mg/kg/injection, schedule: Q## X003 (ip), vehicle: saline 107 % of control | endpoint: mean survival time, dose: 0.37 mg/kg/injection, schedule: Q## X008 (ip), vehicle: saline 109 % of control | endpoint: mean survival time, dose: 0.37 mg/kg/injection, schedule: Q## X024 (ip), vehicle: saline 110 % of control | endpoint: mean survival time, dose: 0.37 mg/kg/injection, schedule: Q## X024 (oral), vehicle: saline 100 % of control | endpoint: mean survival time, dose: 0.45 mg/kg/injection, schedule: Q01DX009 (ip), vehicle: saline + alcohol 99 % of control and 107 % of control | endpoint: mean survival time, dose: 0.63 mg/kg/injection, schedule: Q01DX001 (ip), vehicle: other 107 % of control | endpoint: mean survival time, dose: 0.73 mg/kg/injection, schedule: Q01DX Z (ip), vehicle: carboxymethylcellulose (CMC) 107 % of control | endpoint: mean survival time, dose: 0.75 mg/kg/injection, schedule: Q01DX001 (ip), vehicle: saline 105 % of control | endpoint: mean survival time, dose: 0.75 mg/kg/injection, schedule: Q01DX001 (sc), vehicle: saline 105 % of control | endpoint: mean survival time, dose: 0.75 mg/kg/injection, schedule: Q01DX005 (ip), vehicle: saline 108 % of control | endpoint: mean survival time, dose: 0.75 mg/kg/injection, schedule: Q01DX005 (oral), vehicle: saline 101 % of control | endpoint: mean survival time, dose: 0.75 mg/kg/injection, schedule: Q01DX009 (oral), vehicle: saline 116 % of control | endpoint: mean survival time, dose: 0.75 mg/kg/injection, schedule: Q01DX009 (sc), vehicle: saline 104 % of control | endpoint: mean survival time, dose: 0.75 mg/kg/injection, schedule: Q## X003 (ip), vehicle: saline 108 % of control | endpoint: mean survival time, dose: 0.75 mg/kg/injection, schedule: Q## X008 (ip), vehicle: saline 114 % of control | endpoint: mean survival time, dose: 0.75 mg/kg/injection, schedule: Q## X024 (oral), vehicle: saline 113 % of control | endpoint: mean survival time, dose: 1.0 mg/kg/injection, schedule: Q01DX Z (oral), vehicle: saline 117 % of control | endpoint: mean survival time, dose: 1.0 mg/kg/injection, schedule: Q04DX002 (ip), vehicle: saline + alcohol 105 % of control and 107 % of control | endpoint: mean survival time, dose: 1.0 mg/kg/injection, schedule: Q04DX004 (ip), vehicle: saline 106 % of control | endpoint: mean survival time, dose: 1.25 mg/kg/injection, schedule: Q01DX001 (ip), vehicle: other 101 % of control | endpoint: mean survival time, dose: 1.5 mg/kg/injection, schedule: Q01DX001 (ip), vehicle: saline 107 % of control | endpoint: mean survival time, dose: 1.5 mg/kg/injection, schedule: Q01DX001 (sc), vehicle: saline 107 % of control | endpoint: mean survival time, dose: 1.5 mg/kg/injection, schedule: Q01DX005 (oral), vehicle: saline 103 % of control | endpoint: mean survival time, dose: 1.5 mg/kg/injection, schedule: Q## X003 (ip), vehicle: saline 112 % of control | endpoint: mean survival time, dose: 1.75 mg/kg/injection, schedule: Q07DX Z (oral), vehicle: saline 105 % of control | endpoint: mean survival time, dose: 2.0 mg/kg/injection, schedule: Q01DX001 (ip), vehicle: Klucel (hydroxypropylcellulose) (HPC) 110 % of control | endpoint: mean survival time, dose: 2.0 mg/kg/injection, schedule: Q01DX001 (ip), vehicle: distilled water + alcohol 107 % of control | endpoint: mean survival time, dose: 2.0 mg/kg/injection, schedule: Q01DX001 (ip), vehicle: other 107 % of control and 111 % of control | endpoint: mean survival time, dose: 2.0 mg/kg/injection, schedule: Q01DX006 (iv), vehicle: saline 115 % of control | endpoint: mean survival time, dose: 2.0 mg/kg/injection, schedule: Q04DX002 (ip), vehicle: saline + alcohol 114 % of control | endpoint: mean survival time, dose: 2.0 mg/kg/injection, schedule: Q04DX004 (ip), vehicle: saline 118 % of control | endpoint: mean survival time, dose: 2.5 mg/kg/injection, schedule: Q01DX001 (ip), vehicle: other 114 % of control | endpoint: mean survival time, dose: 3.0 mg/kg/injection, schedule: Q01DX001 (ip), vehicle: saline 112 % of control | endpoint: mean survival time, dose: 3.0 mg/kg/injection, schedule: Q03DX Z (oral), vehicle: saline 117 % of control | endpoint: mean survival time, dose: 3.0 mg/kg/injection, schedule: Q## X003 (oral), vehicle: saline 112 % of control | endpoint: mean survival time, dose: 3.12 mg/kg/injection, schedule: Q01DX001 (ip), vehicle: saline 101 % of control and 106 % of control | endpoint: mean survival time, dose: 3.5 mg/kg/injection, schedule: Q07DX Z (oral), vehicle: saline 111 % of control | endpoint: mean survival time, dose: 5.0 mg/kg/injection, schedule: Q07DX003 (ip), vehicle: saline 104 % of control | endpoint: mean survival time, dose: 6.25 mg/kg/injection, schedule: Q01DX001 (ip), vehicle: saline 108 % of control and 110 % of control | endpoint: mean survival time, dose: 6.75 mg/kg/injection, schedule: Q03HX032 (ip), vehicle: saline + alcohol 103 % of control | endpoint: mean survival time, dose: 6.75 mg/kg/injection, schedule: Q## X032 (ip), vehicle: saline + alcohol 103 % of control | endpoint: mean survival time, dose: 12.0 mg/kg/injection, schedule: Q## X Z (ip), vehicle: saline 103 % of control | endpoint: mean survival time, dose: 12.5 mg/kg/injection, schedule: Q01DX001 (ip), vehicle: saline 118 % of control | endpoint: mean survival time, dose: 16.0 mg/kg/injection, schedule: Q01DX009 (ip), vehicle: carboxymethylcellulose (CMC) 102 % of control | endpoint: mean survival time, dose: 18.0 mg/kg/injection, schedule: Q## X006 (ip), vehicle: saline 116 % of control | endpoint: mean survival time, dose: 24.0 mg/kg/injection, schedule: Q01DX005 (ip), vehicle: saline 106 % of control | endpoint: mean survival time, dose: 24.0 mg/kg/injection, schedule: Q01DX005 (oral), vehicle: saline 119 % of control | endpoint: mean survival time, dose: 24.0 mg/kg/injection, schedule: Q01DX006 (ip), vehicle: saline 109 % of control | endpoint: mean survival time, dose: 24.0 mg/kg/injection, schedule: Q01DX009 (ip), vehicle: saline 117 % of control | endpoint: mean survival time, dose: 24.0 mg/kg/injection, schedule: Q01DX009 (oral), vehicle: saline 116 % of control | endpoint: mean survival time, dose: 24.0 mg/kg/injection, schedule: Q01DX009 (sc), vehicle: saline 117 % of control | endpoint: mean survival time, dose: 36.0 mg/kg/injection, schedule: Q01DX006 (ip), vehicle: saline 98 % of control | endpoint: mean survival time, dose: 40.0 mg/kg/injection, schedule: Q04DX004 (ip), vehicle: saline 94 % of control | endpoint: mean survival time, dose: 48.0 mg/kg/injection, schedule: Q01DX001 (ip), vehicle: Klucel (hydroxypropylcellulose) (HPC) 116 % of control | endpoint: mean survival time, dose: 48.0 mg/kg/injection, schedule: Q01DX006 (ip), vehicle: saline 94 % of control | endpoint: mean survival time, dose: 48.0 mg/kg/injection, schedule: Q## X024 (ip), vehicle: saline 119 % of control | endpoint: mean survival time, dose: 62.0 mg/kg/injection, schedule: Q04DX002 (ip), vehicle: saline + alcohol 107 % of control and 111 % of control | endpoint: mean survival time, dose: 64.0 mg/kg/injection, schedule: Q01DX Z (oral), vehicle: saline 94 % of control | endpoint: mean survival time, dose: 79.0 mg/kg/injection, schedule: Q01DX001 (oral), vehicle: saline 118 % of control | endpoint: mean survival time, dose: 88.0 mg/kg/injection, schedule: Q01DX001 (ip), vehicle: other 116 % of control | endpoint: mean survival time, dose: 96.0 mg/kg/injection, schedule: Q03DX Z (oral), vehicle: saline 108 % of control | endpoint: mean survival time, dose: 112.0 mg/kg/injection, schedule: Q07DX Z (oral), vehicle: saline 106 % of control | endpoint: mean survival time, dose: 128.0 mg/kg/injection, schedule: Q01DX001 (ip), vehicle: Klucel (hydroxypropylcellulose) (HPC) 106 % of control | endpoint: mean survival time, dose: 128.0 mg/kg/injection, schedule: Q01DX001 (ip), vehicle: other 98 % of control | endpoint: mean survival time, dose: 256.0 mg/kg/injection, schedule: Q01DX001 (ip), vehicle: Klucel (hydroxypropylcellulose) (HPC) 96 % of control | endpoint: mean survival time, dose: 256.0 mg/kg/injection, schedule: Q01DX001 (ip), vehicle: other 104 % of control | endpoint: median survival time, dose: 0.75 mg/kg/injection, schedule: Q01DX009 (ip), vehicle: saline 105 % of control | endpoint: median survival time, dose: 1.25 mg/kg/injection, schedule: Q01DX009 (ip), vehicle: saline 100 % of control and 112 % of control | endpoint: median survival time, dose: 24.0 mg/kg/injection, schedule: Q01DX009 (ip), vehicle: saline 95 % of control | endpoint: median survival time, dose: 30.0 mg/kg/injection, schedule: Q01DX005 (ip), vehicle: saline + alcohol 94 % of control and 102 % of control | endpoint: median survival time, dose: 30.0 mg/kg/injection, schedule: Q01DX009 (ip), vehicle: saline + alcohol 93 % of control
